Literature values as cited in US11066448B2, “Zika as a cell penetrating peptide for delivery to the brain” (priority 2018, dated 2021).

What was measured:
[1] = enzymatic hydrolysis, doxorubicin release
[2] = human plasma; MMAE linked

Row | Substance | half-life of cleavage [1] [min] | stability relative to Val-Cit [2] | stability relative to hydrazone linker [2]
1 | Phe-Lys | 8 | substantially less stable | 
2 | valine-citrulline [Val-Cit] | 240 |  | over 100 times
3 | Val-Lys | 9 |  | 
